The target in the assay is T1, VMAT-2 (Homo sapiens, UniProt Q05940).
T1 construct: Novascreen Biosciences Corporation (contract assay provider) protocol Cat. No. 100-0751
As to the kind of experiment: VMAT-2 binding affinity measurement, Novascreen protocol Cat. No. 100-0751. The following applies: for Ki: VMAT-2 binding affinity. As for the experimental part: VMAT-2 binding affinity measurements were carried out by Novascreen Biosciences Corporation (Hanover, Md., USA) using protocol Cat. No. 100-0751. Novascreen, Inc. is a commercial provider of biological assays for the pharmaceutical industry.

Each structure is given as a SMILES string.

Usually Ki stands for a dissociation constant, usually derived from enzyme kinetics or from competition with a known ligand. Higher therefore signals lower affinity.

T1 sequence (Q05940 whole entry, species assumed): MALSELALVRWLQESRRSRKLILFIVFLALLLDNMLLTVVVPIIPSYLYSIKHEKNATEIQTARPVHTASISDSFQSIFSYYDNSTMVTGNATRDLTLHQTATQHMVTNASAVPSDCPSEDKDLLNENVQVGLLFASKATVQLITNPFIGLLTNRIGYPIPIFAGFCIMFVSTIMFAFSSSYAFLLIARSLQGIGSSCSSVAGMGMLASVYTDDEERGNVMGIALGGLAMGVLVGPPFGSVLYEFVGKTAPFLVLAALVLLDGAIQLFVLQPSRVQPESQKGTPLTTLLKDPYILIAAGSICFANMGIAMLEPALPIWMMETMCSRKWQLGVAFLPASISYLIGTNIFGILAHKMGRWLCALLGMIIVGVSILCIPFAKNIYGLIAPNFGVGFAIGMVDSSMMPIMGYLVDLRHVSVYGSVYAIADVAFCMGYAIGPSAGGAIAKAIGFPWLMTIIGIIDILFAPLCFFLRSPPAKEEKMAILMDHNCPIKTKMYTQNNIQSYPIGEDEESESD

As for `COc1cc2c(cc1OC)[C@H]1C[C@@H](OCCF)[C@H](CC(C)C)CN1CC2` [Compound 22], the “VMAT-2 binding affinity, in words” value was “very high binding affinity” and the Ki is 3.2 nM.
`COc1cc2c(cc1OC)[C@H]1C[C@@H](OCCCF)[C@H](CC(C)C)CN1CC2` [Compound 23]: the “VMAT-2 binding affinity, in words” value is listed as “very high binding affinity” and the affinity, expressed as Ki, was 6.4 nM.

The record behind these values is patent US7897770B2 (General Electric Company, priority 2007, dated 2011).
